Measured values from patent US7514571B2, “Bicyclo derivative” (Kyorin Pharmaceutical Co., Ltd., priority 2004, dated 2009).

Key:
[1] = biological target: T1, plasma dipeptidylpeptidase IV (Homo sapiens, UniProt P27487); experiment: In vitro dipeptidylpeptidase IV inhibition (H-Gly-Pro-AMC hydrolysis by plasma, fluorometry); type: biochemical; settings: plasma diluted 8-fold, H-Gly-Pro-AMC.HBr substrate, room temperature, 20 minutes
T1 construct: 20 μL of plasma diluted 8-fold with saline in a well of a 96-well flat bottom plate; from tissue
Method: The concentration of free 7-amino-4-methyl-coumarin (AMC) generated by hydrolysis of H-Gly-Pro-AMC.HBr substrate by plasma dipeptidylpeptidase IV was determined by fluorometry.
A 20 μL of buffer (25 mmol/L hepes, 140 mmol/L sodium chloride, 1% bovine serum albumin, 80 mmol/L magnesium chloride hexahydrate, pH 7.4) containing each compound was added to 20 μL of plasma diluted 8-fold with saline in a well of a 96-well flat bottom plate. The plate was left at room temperature for 5 minutes and 10 μL of 0.1 mmol/L H-Gly-Pro-AMC.HBr solution was added to each well to initiate the reaction. […] Using a fluorescent plate reader, the free AMC concentration was determined by exciting the samples at 355 nm and measuring the fluorescence intensity at 460 nm.

[2] = biological target: T2, plasma dipeptidylpeptidase IV (Mus musculus, UniProt P28843); experiment: Inhibition of plasma dipeptidylpeptidase IV activity in mice by oral administration; type: in vivo; settings: male ICR mice, 0.1 mg/mL suspension at 10 mL/kg, 30 minutes after administration
T2 construct: The blood samples were centrifuged at 6000 rpm for 2 minutes to separate plasma; from tissue; host or cells: plasma of male ICR mice (Charles River Laboratories Japan)
Method: Each compound was suspended in 0.3% sodium carboxymethylcellulose to a concentration of 0.1 mg/mL. The preparation was orally administered to 8 weeks old male ICR mice (Charles River Laboratories Japan) at a dose of 10 mL/kg. Using an EDTA 2K-treated capillary tube, blood samples were collected from the tail vein before administration and 30 minutes after administration. The blood samples were centrifuged at 6000 rpm for 2 minutes to separate plasma. […] The inhibition was determined from the decrease in the enzymatic activity from the initial activity (% inhibition={(activity before administration−activity after administration)/(activity before administration)}×100).

T1 sequence (P27487 39-766 limits assumed): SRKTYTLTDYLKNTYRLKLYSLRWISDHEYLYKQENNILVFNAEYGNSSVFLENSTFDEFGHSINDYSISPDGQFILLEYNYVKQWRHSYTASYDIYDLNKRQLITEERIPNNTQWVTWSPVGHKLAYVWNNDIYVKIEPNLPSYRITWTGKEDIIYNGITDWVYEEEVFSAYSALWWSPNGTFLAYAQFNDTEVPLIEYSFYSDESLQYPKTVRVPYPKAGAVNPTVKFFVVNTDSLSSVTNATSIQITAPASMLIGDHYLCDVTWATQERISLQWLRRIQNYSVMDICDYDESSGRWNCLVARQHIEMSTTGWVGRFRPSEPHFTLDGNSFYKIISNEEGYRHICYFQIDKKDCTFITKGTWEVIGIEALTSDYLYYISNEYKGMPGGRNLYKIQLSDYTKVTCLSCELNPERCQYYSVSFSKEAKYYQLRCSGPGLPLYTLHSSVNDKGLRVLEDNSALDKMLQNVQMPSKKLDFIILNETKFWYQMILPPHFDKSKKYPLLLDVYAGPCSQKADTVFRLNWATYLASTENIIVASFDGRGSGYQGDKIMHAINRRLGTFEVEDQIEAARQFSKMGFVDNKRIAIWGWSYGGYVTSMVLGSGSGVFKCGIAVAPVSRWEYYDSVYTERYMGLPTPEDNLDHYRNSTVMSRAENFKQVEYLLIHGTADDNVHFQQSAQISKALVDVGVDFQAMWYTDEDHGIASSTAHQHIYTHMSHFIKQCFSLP
T2 sequence (P28843 37-760 limits assumed): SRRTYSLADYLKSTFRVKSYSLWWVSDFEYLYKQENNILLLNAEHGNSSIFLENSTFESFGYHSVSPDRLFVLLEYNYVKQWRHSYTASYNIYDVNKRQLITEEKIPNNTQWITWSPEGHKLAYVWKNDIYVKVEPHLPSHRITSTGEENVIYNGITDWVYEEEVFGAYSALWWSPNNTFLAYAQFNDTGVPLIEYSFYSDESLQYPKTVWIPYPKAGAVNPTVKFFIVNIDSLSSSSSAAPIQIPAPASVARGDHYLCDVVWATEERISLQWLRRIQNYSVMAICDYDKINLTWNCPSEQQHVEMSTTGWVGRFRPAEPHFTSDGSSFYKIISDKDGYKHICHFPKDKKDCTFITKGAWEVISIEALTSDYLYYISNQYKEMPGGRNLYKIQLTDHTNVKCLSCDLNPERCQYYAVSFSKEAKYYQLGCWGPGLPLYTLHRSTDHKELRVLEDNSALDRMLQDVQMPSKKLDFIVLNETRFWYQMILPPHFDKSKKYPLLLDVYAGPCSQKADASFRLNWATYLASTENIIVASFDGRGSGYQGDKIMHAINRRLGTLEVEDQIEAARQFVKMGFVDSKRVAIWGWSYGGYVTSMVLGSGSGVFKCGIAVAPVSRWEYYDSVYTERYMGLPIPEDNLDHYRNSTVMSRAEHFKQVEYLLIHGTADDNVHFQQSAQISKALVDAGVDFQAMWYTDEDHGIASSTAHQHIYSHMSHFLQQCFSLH

Row | IC50 [1] [nM] | inhibition at 1 mg/kg [2] [%] | Compound
1 | 3.1 |  | N#C[C@@H]1C[C@H](F)CN1C(=O)CNC12CCC(C(=O)O)(CC1)CC2 [Example 1, (2S,4S)-1-[[N-(4-carboxybicyclo[2,2,2]oct-1-yl)amino]acetyl]-4-fluoropyrrolidine-2-carbonitrile]
2 | 0.25 | 100 | CC12CCC(NCC(=O)N3C[C@@H](F)C[C@H]3C#N)(CC1)CC2 [Example 3, (2S,4S)-1-[[N-(4-methylbicyclo[2,2,2]oct-1-yl)amino]acetyl]-4-fluoropyrrolidine-2-carbonitrile]
3 | 1.1 |  | N#C[C@@H]1C[C@H](F)CN1C(=O)CNC12CCC(CO)(CC1)CC2 [Example 5, (2S,4S)-1-[[N-(4-hydroxymethylbicyclo[2,2,2]oct-1-yl)amino]acetyl]-4-fluoropyrrolidine-2-carbonitrile]
4 |  | 91 | N#C[C@@H]1C[C@H](F)CN1C(=O)CNC12CCC(F)(CC1)CC2 [Example 7, (2S,4S)-1-[[N-(4-fluorobicyclo[2,2,2]oct-1-yl)amino]acetyl]-4-fluoropyrrolidine-2-carbonitrile]
